Measurements published in patent US8067611B2, “Substituted 1-(thiazolyl)-and 1-(isothiazolyl)pyrazol-4-ylacetic acids, processes for their preparation and their use as herbicides and plant growth regulators” (Bayer CropScience AG, priority 2008, dated 2011).

Experiments:
Type in all cases: in vivo
[1] = system: harmful plants; assay: Pre-emergence herbicidal effect, greenhouse pot test; settings: application rate of 1 kg or less of active substance per hectare, scored after about 3 weeks
From the text: (§1) Seeds of monocotyledonous or dicotyledonous weed plants or crop plants are planted in wood-fiber pots in sandy loam and covered with soil. The compounds (I) according to the invention, formulated in the form of wettable powders (WP), are then applied as aqueous suspension or emulsion at a water application rate of 600 I/ha (converted) with the addition of 0.2% of wetting agent to the surface of the covering soil.
(§2) Following the treatment, the pots are placed in a greenhouse and kept under good growth conditions for the test plants. After about 3 weeks, the effect of the preparations is scored visually in comparison with untreated controls (herbicidal effect in percent (%): 100% effect=plants have died, 0% effect=as control plants).

[2] = system: weed-grasses and broad-leaved weeds; assay: Post-emergence herbicidal effect, greenhouse pot test; settings: application rate of 1 kg and less of active substance per hectare, scored after 3 weeks
Protocol: Seeds of monocotyledonous or dicotyledonous weed plants or crop plants are planted in wood-fiber pots in sandy loam, covered with soil and grown in a greenhouse under good growth conditions. 2 to 3 weeks after sowing, the test plants are treated in the one-leaf stage. The compounds according to the invention, formulated in the form of wettable powders (WP), are then sprayed onto the green plant parts as aqueous suspension or emulsion at a water application rate of 600 I/ha (converted) with the addition of 0.2% of wetting agent. After 3 weeks' standing time of the test plants in the greenhouse under optimum growth conditions, the effect of the preparations is scored visually in comparison with untreated controls (herbicidal effect in percent (%): 100% effect=plants have died, 0% effect=as control plants).

[3] = system: Alopecurus myosuroides; assay: Pre-emergence herbicidal effect, greenhouse pot test; settings: 1.0 kg or 0.32 kg of active substance per hectare, 100% = plants have died
From the text: as §1, §2

[4] = system: Avena fatua; assay: as above; settings: 1.0 kg or 0.32 kg of active substance per hectare, 100% = plants have died
From the text: as §1, §2

[5] = system: Echinochloa crus galli; assay: as above; settings: 1.0 kg or 0.32 kg of active substance per hectare, 100% = plants have died
From the text: as §1, §2

[6] = system: Setaria viridis; assay: as above; settings: 1.0 kg or 0.32 kg of active substance per hectare, 100% = plants have died
From the text: as §1, §2

Compound | herbicidal pre-emergence activity against a number of harmful plants [1] | post-emergence activity against a broad spectrum of weed-grasses and broad-leaved weeds [2] | herbicidal activity [3] | herbicidal activity [4] | herbicidal activity [5] | herbicidal activity [6]
COC(=O)Cc1c(C)nn(-c2cncs2)c1-c1ccc(Br)cn1 [Compound 8-121] | good herbicidal pre-emergence activity | good post-emergence activity | – | – | – | –
COC(=O)Cc1c(C)nn(-c2cncs2)c1-c1ccc(F)cc1 [Compound 8-133] | good herbicidal pre-emergence activity | good post-emergence activity | – | – | – | –
COC(=O)Cc1c(C)nn(-c2cncs2)c1-c1cnc(C)cn1 [Compound 8-217] | good herbicidal pre-emergence activity | good post-emergence activity | ≥ 80% | ≥ 80% | ≥ 80% | ≥ 80%
COC(=O)Cc1c(C)nn(-c2cncs2)c1-c1nc2ccccc2s1 [Compound 8-219] | good herbicidal pre-emergence activity | good post-emergence activity | – | – | – | –
COC(=O)Cc1c(C)nn(-c2cncs2)c1-c1ncc(Cl)cn1 [Compound 8-229] | good herbicidal pre-emergence activity | good post-emergence activity | – | – | – | –
COC(=O)Cc1c(C)nn(-c2cncs2)c1-c1ncc(Br)cn1 [Compound 8-230] | good herbicidal pre-emergence activity | good post-emergence activity | – | – | – | –
COC(=O)Cc1c(C)nn(-c2cncs2)c1-c1ccc2ccccc2n1 [Compound 8-239] | good herbicidal pre-emergence activity | good post-emergence activity | – | – | – | –
COC(=O)Cc1c(C)nn(-c2cncs2)c1-c1cc2ccccc2cn1 [Compound 8-240] | good herbicidal pre-emergence activity | good post-emergence activity | – | – | – | –
CCOC(=O)c1ncsc1-n1nc(C)c(CC(=O)OC)c1-c1ccccn1 [Compound 8-241, Ethyl 5-[4-(2-methoxy-2-oxoethyl)-3-methyl-5-(pyridin-2-yl)-1H-pyrazol-1-yl]-1,3-thiazole-4-carboxylate] | good herbicidal pre-emergence activity | good post-emergence activity | – | – | – | –
COC(=O)Cc1c(C)nn(-c2cncs2)c1-c1ccc(-c2ccccc2)cc1 [Compound 8-276] | good herbicidal pre-emergence activity | good post-emergence activity | – | – | – | –
COC(=O)Cc1c(C)nn(-c2cncs2)c1-c1cc(C)c(Cl)cn1 [Compound 8-294] | good herbicidal pre-emergence activity | good post-emergence activity | – | – | – | –
CCOC(=O)Cc1c(C)nn(-c2cncs2)c1-c1ccc(Cl)cc1 [Compound 9-4] | good herbicidal pre-emergence activity | good post-emergence activity | – | – | – | –
Cc1nn(-c2cncs2)c(-c2ccc(Cl)cc2)c1CC(=O)OCC1CC1 [Compound 9-122] | good herbicidal pre-emergence activity | good post-emergence activity | – | – | – | –
